These results are taken from ChEMBL document CHEMBL1201862, “PubChem BioAssay data set” (2004).

Among the test systems are PC-3; SNB-19; Malme-3M; SK-MEL-5; UACC-257; ACHN; NCI-H226; BT-549; 786-0; A498; OVCAR-4; A549; SNB-75; HCT-15; OVCAR-3; TK-10; KM12; LOX IMVI; HOP-62; MDA-N.
Common to all, as to test: NCI-60 cell line screen, 48 h

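Test compounds were applied to cells in 96-well plates for 48 hours at 5 doses. GI50 = concentration required for 50% inhibition of growth.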 The source made the active and inactive calls. No stated cut-off is given here; in the data, active = GI50 up to about 1.1 µM and inactive = higher. Peptide text beside a SMILES is read from it. * marks the point of attachment. Cbz = O=C(OCc1ccccc1)*; NHNH2 = NN*

As to `CC(=O)Nc1oc(C)c(C)c1S(=O)(=O)c1ccc(Cl)cc1`, the GI50 in the assay with PC-3 was 22.1 µM (inactive); in the assay on SNB-19, > 100 µM (inactive); in the assay on Malme-3M, 40.2 µM (inactive); with SK-MEL-5, 27.8 µM (inactive); in the assay on UACC-257, 41 µM (inactive); in the assay with ACHN, 46.2 µM (inactive). Also, the GI50 is 34.4 µM (inactive) in the assay with NCI-H226; 29.2 µM (inactive) with BT-549; 98.9 µM (inactive) in the assay with 786-0; > 100 µM (inactive) with A498; 39.1 µM (inactive) with OVCAR-4; 52 µM (inactive) in the assay on A549. For the same compound, the GI50 with SNB-75 is 34.4 µM (inactive); in the assay with HCT-15, 41.8 µM; in the assay with OVCAR-3, 27.5 µM (inactive); in the assay on TK-10, 60.5 µM (inactive); in the assay with KM12, 39.4 µM (inactive).

Turning to `COc1cccc(-c2c(-c3ccccc3)[nH]c(C)c2C(=O)ONC(=O)c2ccccc2)c1`, the GI50 in the assay with PC-3 was 11.6 µM (inactive); in the assay on LOX IMVI, 1.89 µM (inactive); in the assay on SNB-19, 7.89 µM (inactive); in the assay with HOP-62, 2.72 µM (inactive); with Malme-3M it was 13.4 µM (inactive); with SK-MEL-5 it was 9.93 µM (inactive). For the same compound, the GI50 is 13.5 µM (inactive) with UACC-257; 2.99 µM (inactive) in the assay with ACHN; 10.4 µM (inactive) in the assay with NCI-H226; 5.41 µM (inactive) in the assay on BT-549; 4.44 µM (inactive) in the assay with 786-0; 15 µM (inactive) in the assay on A498. Further, the GI50 is 5.05 µM (inactive) in the assay with OVCAR-4; 2.29 µM (inactive) with A549; 5.86 µM (inactive) in the assay with SNB-75; 12.1 µM with HCT-15; 6.38 µM (inactive) with OVCAR-3; 9.08 µM (inactive) in the assay on TK-10. Also, the GI50 in the assay on KM12 was 13.7 µM (inactive).

Take `CCOC(OCC)C(CCc1ccccc1)c1c(N)nc(N)[nH]c1=O` (stereo not given): the GI50 in the assay with PC-3 was 39.3 µM (inactive); in the assay on LOX IMVI, 64.3 µM (inactive); in the assay with SNB-19, > 100 µM (inactive); in the assay on HOP-62 it was > 100 µM (inactive); in the assay on Malme-3M it was > 100 µM (inactive); with SK-MEL-5, 47.6 µM (inactive). Besides, the GI50 with UACC-257 is > 100 µM (inactive); with NCI-H226 it was 41.2 µM (inactive); with BT-549 it was 86.9 µM (inactive); with 786-0, 89.7 µM (inactive); with A498, > 100 µM (inactive); in the assay with OVCAR-4, 46.1 µM (inactive). The GI50 was 54.1 µM (inactive) with A549; > 100 µM (inactive) in the assay on SNB-75; 68.7 µM in the assay with HCT-15; 62.4 µM (inactive) in the assay with OVCAR-3; 66.2 µM (inactive) in the assay with TK-10; 66.4 µM (inactive) with KM12.

On to `CC(=O)c1c(O)nnc(-c2ccc(Cl)cc2)c1-c1ccc(Cl)cc1`, for which the GI50 was 37.4 µM (inactive) with PC-3; 21.7 µM (inactive) in the assay with LOX IMVI; > 100 µM (inactive) with SNB-19; 28.5 µM (inactive) with Malme-3M; 29 µM (inactive) with SK-MEL-5; 39 µM (inactive) with UACC-257. In addition, the GI50 in the assay on ACHN was 22 µM (inactive); with NCI-H226, 31.3 µM (inactive); in the assay on MDA-N, 33.7 µM (inactive); with 786-0, 83.6 µM (inactive); in the assay with A498, 26.7 µM (inactive); in the assay on OVCAR-4, 21.1 µM (inactive). The GI50 in the assay with A549 was 29.9 µM (inactive); with HCT-15, 24.2 µM; with OVCAR-3 it was 25.1 µM (inactive); in the assay with TK-10 it was 62.4 µM (inactive); with KM12 it was 35.2 µM (inactive).

Regarding `Nc1cc(C2CCCc3c2[nH]c2ccccc32)ccc1O` (stereo not given), the GI50 with PC-3 was 38.5 µM (inactive); in the assay with LOX IMVI, 16.4 µM (inactive); in the assay on SNB-19 it was > 100 µM (inactive); in the assay with HOP-62 it was 74.6 µM (inactive); in the assay on Malme-3M it was 33 µM (inactive); in the assay with SK-MEL-5, 6 µM (inactive). For the same compound, the GI50 in the assay with UACC-257 is 42.4 µM (inactive); in the assay on ACHN, 18.5 µM (inactive); in the assay on NCI-H226, 55.3 µM (inactive); in the assay with BT-549, 35.2 µM (inactive); in the assay with 786-0 it was 15.3 µM (inactive); in the assay with A498 it was > 100 µM (inactive). Moreover, the GI50 in the assay on OVCAR-4 was 16.9 µM (inactive); in the assay with A549, 24.6 µM (inactive); in the assay with SNB-75, 52 µM (inactive); in the assay with HCT-15, 55.3 µM; in the assay on OVCAR-3 it was 22.3 µM (inactive); in the assay on TK-10, > 100 µM (inactive). The GI50 with KM12 was 20.1 µM (inactive).

As for `C[C@H](CCCOS(C)(=O)=O)[C@H]1CC[C@H]2[C@@H]3CC[C@@H]4C[C@H](OS(C)(=O)=O)CC[C@]4(C)[C@H]3CC[C@]12C`, the GI50 is 20.6 µM (inactive) with PC-3; 31.7 µM (inactive) with LOX IMVI; 27.5 µM (inactive) in the assay with SNB-19; 22.5 µM (inactive) with HOP-62; 15.2 µM (inactive) with Malme-3M; 29.8 µM (inactive) in the assay on SK-MEL-5. In addition, the GI50 in the assay on UACC-257 is 46.7 µM (inactive); in the assay on ACHN, 15.6 µM (inactive); in the assay on NCI-H226, 17.5 µM (inactive); in the assay on BT-549, 36.8 µM (inactive); in the assay on 786-0, 31 µM (inactive); in the assay on A498, 22.3 µM (inactive). The GI50 is 27.9 µM (inactive) in the assay with OVCAR-4; 17 µM (inactive) in the assay on A549; 31.8 µM (inactive) with SNB-75; 66.8 µM in the assay on HCT-15; 21.4 µM (inactive) in the assay on OVCAR-3; 15.7 µM (inactive) in the assay on TK-10. For the same compound, the GI50 in the assay on KM12 was 29.2 µM (inactive).

For the compound `O=[N+]([O-])c1ccc(-c2nn3c(C45CC6CC(CC(C6)C4)C5)nnc3s2)c(Cl)c1`, the GI50 in the assay on PC-3, in the assay on LOX IMVI, with SNB-19, in the assay with HOP-62, in the assay on Malme-3M and in the assay on SK-MEL-5 was > 100 µM (inactive) throughout. The GI50 in the assay with ACHN, in the assay on NCI-H226, with MDA-N, in the assay on 786-0, in the assay on A498 and with OVCAR-4 was > 100 µM (inactive) throughout. Moreover, the GI50 in the assay with A549 was > 100 µM (inactive); in the assay with SNB-75, > 100 µM (inactive); with HCT-15, more than 100 µM; in the assay with OVCAR-3, > 100 µM (inactive); in the assay on TK-10 it was > 100 µM (inactive); in the assay on KM12, > 100 µM (inactive).

Take `N#Cc1[nH]c(=O)n(-c2ccccc2)c1N`: the GI50 was > 10 µM (inactive) with PC-3; 0.0995 µM (active) in the assay with LOX IMVI; > 10 µM (inactive) in the assay with SNB-19; > 10 µM (inactive) with HOP-62; > 10 µM (inactive) in the assay on Malme-3M; > 10 µM (inactive) in the assay with SK-MEL-5. The GI50 with UACC-257, in the assay on ACHN, in the assay with NCI-H226, in the assay on MDA-N, in the assay on 786-0 and in the assay on A498 was > 10 µM (inactive) throughout. The GI50 in the assay on OVCAR-4 is > 10 µM (inactive); with A549, > 10 µM (inactive); in the assay on SNB-75, 6.52 µM (inactive); in the assay on HCT-15, more than 10 µM; in the assay with OVCAR-3, > 10 µM (inactive); in the assay with TK-10, > 10 µM (inactive). Moreover, in the assay on KM12, the GI50 was > 10 µM (inactive).

With `CC1CC/C(=C\c2ccc(F)cc2)C2=C1C(c1ccc(F)cc1)n1c(s/c(=C/c3cccc(Br)c3)c1=O)=N2` (stereo not given), the GI50 in the assay on PC-3, in the assay on LOX IMVI, in the assay on SNB-19, in the assay on HOP-62, in the assay on SK-MEL-5 and in the assay with UACC-257 was > 100 µM (inactive) each time. The GI50 in the assay on ACHN, with MDA-N, in the assay on 786-0, in the assay on A498, in the assay on A549 and in the assay with SNB-75 was > 100 µM (inactive) throughout. For the same compound, the figures for the GI50 in the assay on HCT-15, with TK-10 and in the assay on KM12 were more than 100 µM, > 100 µM (inactive) and > 100 µM (inactive), respectively.

With `Cc1ccc(S(=O)(=O)CC2(Br)CCc3ccccc3C2=O)cc1` (stereo not given), the GI50 with PC-3 was 42.4 µM (inactive); in the assay with LOX IMVI, 32 µM (inactive); in the assay on SNB-19 it was 41.9 µM (inactive); in the assay on HOP-62, 39.4 µM (inactive); in the assay on Malme-3M, 33.5 µM (inactive); in the assay with SK-MEL-5, 17.6 µM (inactive). Besides, the GI50 was 22.3 µM (inactive) in the assay on UACC-257; 19.8 µM (inactive) in the assay on ACHN; 41.8 µM (inactive) in the assay on NCI-H226; 18.3 µM (inactive) in the assay on BT-549; 42.9 µM (inactive) in the assay on 786-0; 25.8 µM (inactive) with A498. Besides, the GI50 with OVCAR-4 is 27.7 µM (inactive); in the assay with A549, 45.3 µM (inactive); in the assay with SNB-75, 29.9 µM (inactive); with HCT-15 it was 19.8 µM; in the assay on OVCAR-3 it was 45.3 µM (inactive); in the assay on TK-10 it was 33 µM (inactive). Further, the GI50 in the assay on KM12 is 41 µM (inactive).

Regarding `COC(=O)CC(NC(=O)OCc1ccccc1)C(=O)NC(CC(=O)OC)C(=O)NC(CC(=O)OC)C(=O)NC(CC(=O)OC)C(=O)NC(CC(=O)OC)C(=O)NC(CC(=O)OC)C(=O)NN` (stereo not given) (Cbz-D(OMe)D(OMe)D(OMe)D(OMe)D(OMe)D(OMe)-NHNH2; configuration not given here), the GI50 in the assay on PC-3, in the assay with LOX IMVI, in the assay on SNB-19, in the assay with HOP-62, in the assay with SK-MEL-5 and in the assay with UACC-257 was > 100 µM (inactive) each time. The GI50 in the assay on ACHN, in the assay with BT-549, with MDA-N, in the assay on 786-0, with OVCAR-4 and in the assay with SNB-75 was > 100 µM (inactive) each time. Also, the GI50 in the assay with HCT-15 was more than 100 µM; with TK-10, > 100 µM (inactive); in the assay with KM12, > 100 µM (inactive).
